Measured values taken from patent US20150266857A1, “NOVEL 3-INDOL SUBSTITUTED DERIVATIVES, PHARMACEUTICAL COMPOSITIONS AND METHODS FOR USE” (iTeos Therapeutics, priority 2014, published 2015).

Legend:
[1] = molecular target: T1, murine mastocytoma P815 cells overexpressing hTDO2 (Homo sapiens, UniProt P48775); experiment: Cellular assay for TDO2 activity, hTDO2-overexpressing P815 cells; format: cell-based; settings: P815 cells overexpressing hTDO2, overnight incubation, kynurenine in supernatant
T1 construct: expressed in transfected cells; host or cells: murine mastocytoma P815 cells
T1 sequence (P48775 whole entry): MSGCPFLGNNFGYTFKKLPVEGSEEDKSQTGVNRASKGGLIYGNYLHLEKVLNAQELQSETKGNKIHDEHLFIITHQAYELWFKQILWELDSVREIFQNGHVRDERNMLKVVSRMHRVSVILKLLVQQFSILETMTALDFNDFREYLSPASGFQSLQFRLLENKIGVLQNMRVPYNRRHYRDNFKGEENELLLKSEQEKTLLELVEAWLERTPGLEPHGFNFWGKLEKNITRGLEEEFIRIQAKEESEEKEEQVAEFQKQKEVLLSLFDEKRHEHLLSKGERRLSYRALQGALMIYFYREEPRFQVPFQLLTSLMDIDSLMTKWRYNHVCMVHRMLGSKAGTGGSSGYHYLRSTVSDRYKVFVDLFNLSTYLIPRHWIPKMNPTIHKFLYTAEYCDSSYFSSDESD
Protocol: The assay (adapted from Pilotte L et al., Proc Natl Acad Sci USA, 2012, 109(7), 2497-502) was performed in 96-well flat bottom plates seeded with murine mastocytoma P815 cells overexpressing hTDO2 (prepared as described in Pilotte et al., PNAS, 2012, 109(7), 2497-2502), at a concentration of 5×10^4 cells/well in a final volume of 200 μL. To determine TDO or IDO activity, the cells were incubated overnight at 37° C. at 5% CO2 in IMDM (Invitrogen) supplemented with 2% FBS and 2% penicillin/streptomycin in the presence of the compounds of the present invention, at different concentrations. The cells may be obtained from the American Type Cuylture Collecion [ATCC® TIB-64™ or commercially, e.g., from Sigma-Aldrich or Life Technologies.]
The plates were then centrifuged 5 min at 1000 rpm, and 100 μL of the supernatant were collected in a conical plate, 30 uL of TCA 30% were added and a further centrifugated at 3000×g for 10 minutes. 100 μL of the supernatant were collected in a flat bottomed plate and 100 μL of 2% (w/v) 4-(dimethylamino)-benzaldehyde in acetic acid and incubated for 5 min at room temperature. Kynurenine concentrations were determined by measuring the absorbance at 480 nm. A standard curve was made with pure kynurenine. The TDO activity was measured as described above using ten serial concentrations of the compounds of the present invention. Data were fitted using the Prism™ software (GraphPad Software, Inc.) using standard parameters.

[2] = molecular target: T2, human glioblastoma A172 cells, naturally expressing hTDO2 (Homo sapiens, UniProt P48775); experiment: Cellular assay for TDO2 activity, A172 cells; format: cell-based; settings: overnight incubation, kynurenine in supernatant
T2 construct: human glioblastoma A172 cells, naturally expressing hTDO2; endogenous in cells; host or cells: human glioblastoma A172 cells (ATCC CRL-1620)
T2 sequence (P48775 whole entry): as above
Method in brief: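 A172 human glioblastoma cells naturally expressing TDO2, seeded at 1.25×10^4 cells/well, were incubated overnight at 37 °C in IMDM with 2% FBS and ten serial compound concentrations. Supernatant kynurenine, after TCA precipitation and Ehrlich's reagent, was read at 480 nm against a kynurenine standard curve; data curve-fitted.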

[3] = molecular target: T3, human recombinant TDO2 enzyme (Homo sapiens, UniProt P48775); experiment: Assay for TDO2 enzymatic activity determination; format: biochemical; settings: human recombinant TDO2, L-Trp 1 mM, kynurenine absorbance at 480 nm
T3 construct: made in house
T3 sequence (P48775 whole entry): as above
Protocol: To measure the TDO2 activity, the procedure described in Dolusic et al. J. Med. Chem.; 2011, 54, […] was adapted: the reaction mixture contained (final concentrations) potassium phosphate buffer (50 mM, pH 7.5), ascorbic acid (0.25 M), methylene blue (0.125 μM), catalase (40 units/mL, from bovine liver, Sigma), and human recombinant TDO2 enzyme (prepared as described in Dolusic et al. J. Med. Chem.; 2011, 54, 5320-5334; 0.9 μg) without or with the compounds of the present invention at the indicated concentrations (total volume 112.5 μL). The reaction was initiated by the addition of 37.5 μL of L-Trp (final concentration 1 mM) at room temperature. The reaction was conducted at room temperature during one hour and stopped by the addition of 30 μL of 30% (w/v) trichloroacetic acid.
To convert N-formylkynurenine into kynurenine, the reaction mixture was incubated at 65° C. for 30 min. Then 150 μL of the reaction mixture was mixed with 120 μL of 2.5% (w/v) 4-(dimethylamino)-benzaldehyde in acetic acid and incubated for 5 min at room temperature. Kynurenine concentrations were determined by measuring the absorbance at 480 nm. A standard curve was made with pure kynurenine. The TDO activity was measured as described above using ten serial concentrations of the compounds of the present invention. Data were fitted using the Prism™ software (GraphPad Software, Inc.) using standard parameters.

Compound | IC50 [1] [µM] | IC50 [2] [µM] | IC50 [3] [µM]
NCC(=O)NCc1nc2ccc(-c3c[nH]c4cc(F)ccc34)cc2[nH]1 [Compound 31, 2-amino-N-((6-(6-fluoro-1H-indol-3-yl)-1H-benzo[d]imidazol-2-yl)methyl)acetamide] | 2.3 |  | 
CS(=O)(=O)NCc1nc2ccc(-c3c[nH]c4cc(F)ccc34)cc2[nH]1 [Compound 32, N-((6-(6-fluoro-1H-indol-3-yl)-1H-benzo[d]imidazol-2-yl)methyl)methanesulfonamide] | 0.46 |  | 
NC(=O)Cc1nc2ccc(-c3c[nH]c4cc(F)ccc34)cc2[nH]1 [Compound 60, 2-(6-(6-fluoro-1H-indol-3-yl)-1H-benzo[d]imidazol-2-yl)acetamide] | 0.638 |  | 
Cc1nc2cc(-c3c[nH]c4cc(F)ccc34)ccc2o1 [Compound 48, 5-(6-fluoro-1H-indol-3-yl)-2-methylbenzo[d]oxazole] | 0.118 |  | 
O=C1NS(=O)(=O)c2ccc(-c3c[nH]c4cc(F)ccc34)cc21 [Compound 130, 5-(6-fluoro-1H-indol-3-yl)benzo[d]isothiazol-3(2H)-one 1,1-dioxide] |  | 0.083 | 2.42
Cc1nc2ccc(-c3c[nH]c4cc(F)ccc34)cc2o1 [Compound 54, 6-(6-fluoro-1H-indol-3-yl)-2-methylbenzo[d]oxazole] | 0.109 |  | 
CS(=O)(=O)CCc1nc2ccc(-c3c[nH]c4cc(F)ccc34)cc2o1 [Compound 101, 6-(6-fluoro-1H-indol-3-yl)-2-(2-(methylsulfonyl)ethyl)benzo[d]oxazole] |  | 0.153 | 1.38
CS(=O)(=O)N1CCC(c2nc3ccc(-c4c[nH]c5cc(F)ccc45)cc3o2)CC1 [Compound 96, 6-(6-fluoro-1H-indol-3-yl)-2-(1-(methylsulfonyl)piperidin-4-yl)benzo[d]oxazole] |  | 0.589 | 2.39
NC(=O)Cn1ncc2cc(-c3c[nH]c4cc(F)ccc34)ccc21 [Compound 9, 2-(5-(6-fluoro-1H-indol-3-yl)-1H-indazol-1-yl)acetamide] |  | 0.147 | 0.645
CS(=O)(=O)NCc1nc2ccc(-c3c[nH]c4ccc(F)cc34)cc2o1 [Compound 128, N-((6-(5-fluoro-1H-indol-3-yl)benzo[d]oxazol-2-yl)methyl)methanesulfonamide] |  | 0.54 | 6.07

The remaining lines, values ahead:

IC50 [1] [µM] | IC50 [2] [µM] | IC50 [3] [µM] | Compound
0.689 |  |  | NCCc1nc2ccc(-c3c[nH]c4cc(F)ccc34)cc2[nH]1 [Compound 35, 2-(6-(6-fluoro-1H-indol-3-yl)-1H-benzo[d]imidazol-2-yl)ethanamine]
0.079 |  |  | Fc1ccc2c(-c3ccc4ncoc4c3)c[nH]c2c1 [Compound 53, 6-(6-fluoro-1H-indol-3-yl)benzo[d]oxazole]
0.678 |  |  | NCc1nc2ccc(-c3c[nH]c4cc(F)ccc34)cc2[nH]1 [Compound 27, (6-(6-fluoro-1H-indol-3-yl)-1H-benzo[d]imidazol-2-yl)methanamine]
0.622 |  |  | Fc1ccc2c(-c3ccc4nc(CN5CCNCC5)[nH]c4c3)c[nH]c2c1 [Compound 59, 6-(6-fluoro-1H-indol-3-yl)-2-(piperazin-1-ylmethyl)-1H-benzo[d]imidazole]
0.595 |  |  | Fc1ccc2c(-c3ccc4[nH]c(CN5CCOCC5)nc4c3)c[nH]c2c1 [Compound 45, 4-((5-(6-fluoro-1H-indol-3-yl)-1H-benzo[d]imidazol-2-yl)methyl)morpholine]
1.13 |  |  | CC(=O)NCCc1nc2ccc(-c3c[nH]c4cc(F)ccc34)cc2[nH]1 [Compound 36, N-(2-(6-(6-fluoro-1H-indol-3-yl)-1H-benzo[d]imidazol-2-yl)ethyl)acetamide]
0.345 |  |  | CNCc1nc2cc(-c3c[nH]c4cc(F)ccc34)ccc2[nH]1 [Compound 44, 1-(5-(6-fluoro-1H-indol-3-yl)-1H-benzo[d]imidazol-2-yl)-N-methylmethanamine]
 | 0.334 | 1.21 | O=S(=O)(CCN1CCCC1)NCc1nc2ccc(-c3c[nH]c4cc(F)ccc34)cc2o1 [Compound 124, N-((6-(6-fluoro-1H-indol-3-yl)benzo[d]oxazol-2-yl)methyl)-2-(pyrrolidin-1-yl)ethanesulfonamide]
